Data as given in patent US20190192699A1, “NUCLEAR IMAGING AND RADIOTHERAPEUTICS AGENTS TARGETING CARBONIC ANHYDRASE IX AND USES THEREOF” (THE JOHNS HOPKINS UNIVERSITY, priority 2016, published 2019).
Where “and” joins values, the source holds several entries; their conditions need not be identical. Equal values may be shown once. Entries after “also recorded” stand apart in the source; their conditions may differ.

Columns and labels:
[1] = tested on: CAIX-expressing SK-RC-52 tumors; test: PET/CT imaging of [64Cu]XYIMSR-06; format: in vivo, mice; details: 22.2 MBq (600 μCi) via tail vein
Description: (§1) Cell Lines and Mouse Models. Animal experiments were performed in accordance with protocols approved by the Johns Hopkins Animal Care and Use Committee (ACUC). Six-week-old female NOD/SCID mice were purchased from the Animal Resource Core of the Sidney Kimmel Comprehensive Cancer Center of Johns Hopkins and were subcutaneously injected in the lower left flank or upper right flank with 1×10^6 SK-RC-52 cells in RPMI 1640 GlutaMAX™ media (Life Technologies, Frederick, Md.) supplemented with 1% fetal bovine serum (FBS). Mice were monitored for tumor size and used for SPECT/CT imaging when the size of the tumor reached 100 mm^3.
PET/CT imaging of [^64Cu]XYIMSR-06. Mice harboring subcutaneous SK-RC-52 tumors within the upper right flank were injected intravenously (tail vein) with 22.2 MBq (600 μCi) of [^64Cu]XYIMSR-06 in 250 μL of PBS (pH=7.0). Anesthesia was then induced with 3% isoflurane and maintained with 2% isoflurane. Physiologic temperature was maintained with an external light source while the mouse was on the gantry. Whole body, 2-bed PET/CT imaging was performed using the SuperArgus small animal PET/CT scanner (Sedecal, Madrid, Spain), […] a 250-700 keV energy window. PET acquisition times were: 5 min/bed position (1 h post-injection of [^64Cu]XYIMSR-06); 10 min/bed position (4 and 8 h) and 20 min/bed position (24 h). […]

SK-RC-52 xenografts = test: Biodistribution of [64Cu]XYIMSR-06; format: in vivo, mice
Description: as §1
Biodistribution of [^64Cu]XYIMSR-06. Mice bearing SK-RC-52 xenografts within the upper right flank were injected intravenously with 740 kBq (20 μCi) of [^64Cu]XYIMSR-06 in 200 μL of PBS. For in vivo competition (binding specificity) studies, tumor-bearing mice were injected with 740 kBq (20 μCi) of [^64Cu]XYIMSR-06 and 200 nmole of 1 in 200 μL of PBS concurrently. At specific times after injection (1 h, 4 h, 8 h and 24 h), mice (n=5) were sacrificed by cervical dislocation with blood immediately collected by cardiac puncture. Heart, lungs, pancreas, spleen, fat, brain, muscle, small intestines, liver, stomach, kidney, urinary bladder, and tumor were also collected. Each organ was weighed and the tissue radioactivity was measured with an automated gamma counter (1282 Compugamma CS, Pharmacia/LKBNuclear, Inc., Mt. Waverly, Vic. Australia). The percentage of injected dose per gram of tissue (% ID/g) was calculated by comparison with samples of a standard dilution of the initial dose. All measurements were corrected for radioactive decay. Data were expressed as mean±standard deviation (SD). Prism software (GraphPAD, San Diego, Calif.) was used to determine statistical significance. Statistical significance was calculated using a paired t test. P-values […] were considered significant.

[2] = 8 h + block (200 nmole of 1 co-injected)
[3] = 24 h + block (200 nmole of 1 co-injected)

## CC(CCC(=O)N[C@@H](CC(=O)N[C@@H](CC(=O)N[C@@H](CCCCn1cc(CCCC(=O)Nc2nnc(S(N)(=O)=O)s2)nn1)C(=O)NCCOCCOCCNC(=S)Nc1ccc(CC2CN(CC(=O)[O-])CCN(CC(=O)[O-])CCN2CC(=O)O)cc1)C(=O)O)C(=O)O)(c1ccc(O)cc1)c1ccc(O)cc1.[64Cu+2] (stereo partly shown) [[^64Cu]XYIMSR-06]
[1]
  PET/CT tumor imaging finding: radiotracer uptake in tumor as early as 1 h post-injection; also recorded: At 1 h, tumor could be observed distinctly
SK-RC-52 xenografts; 1 h post-injection
  Biodistribution: Bladder: 11.12 ± 6.33 % ID/g
  Biodistribution: Blood: 0.66 ± 0.05 % ID/g
  Biodistribution: Brain: 1.46 ± 2.23 % ID/g
  Biodistribution: Fat: 0.80 ± 0.17 % ID/g
  Biodistribution: Heart: 3.41 ± 0.79 % ID/g
  Biodistribution: Kidney (kid): 33.65 ± 3.91 % ID/g
  Biodistribution: Liver: 3.25 ± 0.97 % ID/g
  Biodistribution: Lung: 25.52 ± 3.35 % ID/g
  Biodistribution: Muscle (mm): 1.28 ± 0.27 % ID/g
  Biodistribution: Pancreas: 2.94 ± 0.24 % ID/g
  Biodistribution: Sm. intestine: 7.35 ± 0.78 % ID/g
  Biodistribution: Spleen: 0.36 ± 0.08 % ID/g
  Biodistribution: Stomach: 14.80 ± 2.27 % ID/g
  Biodistribution: Tumor: 14.5 % ID/g and 14.47 ± 2.69 % ID/g
  Tumor/kid (kidney) ratio: 0.4 ± 0.1
  Tumor/mm (muscle) ratio: 10.8 ± 3.7
SK-RC-52 xenografts; 4 h post-injection
  Biodistribution: Bladder: 17.05 ± 8.86 % ID/g
  Biodistribution: Blood: 0.33 ± 0.06 % ID/g
  Biodistribution: Brain: 0.29 ± 0.06 % ID/g
  Biodistribution: Fat: 0.52 ± 0.29 % ID/g
  Biodistribution: Heart: 1.78 ± 0.33 % ID/g
  Biodistribution: Kidney (kid): 19.99 ± 2.88 % ID/g
  Biodistribution: Liver: 2.18 ± 0.57 % ID/g
  Biodistribution: Lung: 12.03 ± 1.61 % ID/g
  Biodistribution: Muscle (mm): 0.70 ± 0.18 % ID/g
  Biodistribution: Pancreas: 1.36 ± 0.19 % ID/g
  Biodistribution: Sm. intestine: 4.15 ± 0.69 % ID/g
  Biodistribution: Spleen: 0.24 ± 0.04 % ID/g
  Biodistribution: Stomach: 8.19 ± 0.97 % ID/g
  Biodistribution: Tumor: 19.3 % ID/g and 19.31 ± 4.51 % ID/g
  Tumor/Blood ratio: 57.7 ± 9.3
  Tumor/kid (kidney) ratio: 1.0 ± 0.1
  Tumor/mm (muscle) ratio: 29.4 ± 9.9
SK-RC-52 xenografts; [2]
  Biodistribution: Bladder: 1.45 ± 1.53 % ID/g
  Biodistribution: Blood: 0.08 ± 0.01 % ID/g
  Biodistribution: Brain: 0.04 ± 0.01 % ID/g
  Biodistribution: Fat: 0.05 ± 0.01 % ID/g
  Biodistribution: Heart: 0.16 ± 0.03 % ID/g
  Biodistribution: Kidney (kid): 1.82 ± 0.39 % ID/g
  Biodistribution: Liver: 0.55 ± 0.08 % ID/g
  Biodistribution: Lung: 0.77 ± 0.14 % ID/g
  Biodistribution: Muscle (mm): 0.05 ± 0.02 % ID/g
  Biodistribution: Pancreas: 0.14 ± 0.03 % ID/g
  Biodistribution: Sm. intestine: 0.38 ± 0.06 % ID/g
  Biodistribution: Spleen: 0.14 ± 0.02 % ID/g
  Biodistribution: Stomach: 0.69 ± 0.18 % ID/g
  Biodistribution: Tumor: 2.39 ± 0.24 % ID/g
  Tumor/Blood ratio: 32.0 ± 3.8
  Tumor/kid (kidney) ratio: 1.3 ± 10.2
  Tumor/mm (muscle) ratio: 53.0 ± 12.6
SK-RC-52 xenografts; 8 h post-injection
  Biodistribution: Bladder: 7.43 ± 7.72 % ID/g
  Biodistribution: Blood: 0.13 ± 0.02 % ID/g
  Biodistribution: Brain: 0.24 ± 0.06 % ID/g
  Biodistribution: Fat: 0.28 ± 0.27 % ID/g
  Biodistribution: Heart: 0.65 ± 0.10 % ID/g
  Biodistribution: Kidney (kid): 8.14 ± 1.15 % ID/g
  Biodistribution: Liver: 0.99 ± 0.22 % ID/g
  Biodistribution: Lung: 4.64 ± 0.58 % ID/g
  Biodistribution: Muscle (mm): 0.21 ± 0.05 % ID/g
  Biodistribution: Pancreas: 0.47 ± 0.21 % ID/g
  Biodistribution: Sm. intestine: 1.98 ± 0.14 % ID/g
  Biodistribution: Spleen: 0.18 ± 0.02 % ID/g
  Biodistribution: Stomach: 4.02 ± 0.53 % ID/g
  Biodistribution: Tumor: 16.74 ± 1.58 % ID/g
  Tumor/Blood ratio: 129.6±18.8
  Tumor/kid (kidney) ratio: 2.1±0.26
  Tumor/mm (muscle) ratio: 84.3±21.0
SK-RC-52 xenografts; 24 h
  all other tumor-to-organ ratios tested: ≥ 10.0
  tumor-to-lung ratio: 4.9
SK-RC-52 xenografts; [3]
  Biodistribution: Bladder: 0.45 ± 0.50 % ID/g
  Biodistribution: Blood: 0.01 ± 0.08 % ID/g
  Biodistribution: Brain: 0.02 ± 0.01 % ID/g
  Biodistribution: Fat: 0.01 ± 0.01 % ID/g
  Biodistribution: Heart: 0.08 ± 0.01 % ID/g
  Biodistribution: Kidney (kid): 0.48 ± 0.09 % ID/g
  Biodistribution: Liver: 0.42 ± 0.04 % ID/g
  Biodistribution: Lung: 0.29 ± 0.05 % ID/g
  Biodistribution: Muscle (mm): 0.04 ± 0.06 % ID/g
  Biodistribution: Pancreas: 0.07 ± 0.02 % ID/g
  Biodistribution: Sm. intestine: 0.19 ± 0.05 % ID/g
  Biodistribution: Spleen: 0.11 ± 0.04 % ID/g
  Biodistribution: Stomach: 0.29 ± 0.04 % ID/g
  Biodistribution: Tumor: 1.20 ± 0.47 % ID/g
  Tumor/Blood ratio: 27.1 ± 26.7
  Tumor/kid (kidney) ratio: 2.4 ± 0.4
  Tumor/mm (muscle) ratio: 49.0 ± 28.7
SK-RC-52 xenografts; 24 h post-injection
  Biodistribution: Bladder: 0.34 ± 0.09 % ID/g
  Biodistribution: Blood: 0.00 ± 0.06 % ID/g
  Biodistribution: Brain: 0.13 ± 0.02 % ID/g
  Biodistribution: Fat: 0.03 ± 0.01 % ID/g
  Biodistribution: Heart: 0.12 ± 0.03 % ID/g
  Biodistribution: Kidney (kid): 0.90 ± 0.12 % ID/g
  Biodistribution: Liver: 0.38 ± 0.03 % ID/g
  Biodistribution: Lung: 1.27 ± 0.38 % ID/g
  Biodistribution: Muscle (mm): 0.02 ± 0.01 % ID/g
  Biodistribution: Pancreas: 0.21 ± 0.29 % ID/g
  Biodistribution: Sm. intestine: 0.47 ± 0.03 % ID/g
  Biodistribution: Spleen: 0.09 ± 0.01 % ID/g
  Biodistribution: Stomach: 0.65 ± 0.04 % ID/g
  Biodistribution: Tumor: 6.2 % ID/g and 6.23 ± 1.41 % ID/g
  Tumor/Blood ratio: 142.6 ± 115.8
  Tumor/kid (kidney) ratio: 7.1 and 7.1 ± 2.5
  Tumor/mm (muscle) ratio: 261.3 ± 47.3
SK-RC-52 xenografts; co-injection of 200 nmole of 1
  tumor uptake on co-injection of 200 nmole of 1: blocked tumor uptake
SK-RC-52 xenografts; within 24 h
  radiotracer uptake within liver (in vivo stability of NOTA-64Cu chelation): no significant radiotracer uptake within liver
